We go through three compounds from publication PMC10238102, “Anti-SARS-CoV-2 Activity of Adamantanes In Vitro and in Animal Models of Infection” (COVID, 2022).

For data set [1], the system named is SARS-CoV-2 omicron variant B.1.1.529. The data set can be described thus: microbe, parasite or virus in culture. Type of data set: cell-based. The note with it: Severe acute respiratory syndrome coronavirus 2, Vero C1008, 48 h.
The conditions of data set [2]: mouse, in vivo.

The IC50 is the point on the concentration scale where inhibition reaches its midpoint. The low end stands for higher potency, the high end for lower potency. As to `CC(N)C12CC3CC(CC(C3)C1)C2` (stereo not shown) [rimantadine], the IC50 in data set [1] came to 17.8 µM. This counts as double-digit micromolar.

Compound `NC12CC3CC(CC(C3)C1)C2` [amantadine] came in with an IC50 in data set [1] of 106 µM. For the same compound, the “weight loss at 3 DPI compared to water control” value in data set [2] is on record as “significant amount of weight loss”. For `CCC(CC)COC(=O)[C@H](C)N[P@](=O)(OC[C@H]1O[C@@](C#N)(c2ccc3c(N)ncnn23)[C@H](O)[C@@H]1O)Oc1ccccc1` [remdesivir], the IC50 in data set [1] was determined as 0.89 µM.
